Test results from ChEMBL document CHEMBL4825710, “Antibacterial activity of β-sitosterol isolated from the leaves of Odontonema strictum (Acanthaceae)” (2021).
The source made the active and inactive calls.

Experiments:
Staphylococcus aureus [1] = assay: Antibacterial activity against Staphylococcus aureus assessed as bacterial growth inhibition; assay type: functional
Shigella dysenteriae [2] = assay: Antibacterial activity against Shigella dysenteriae assessed as bacterial growth inhibition at 12.5 ug/ml; assay type: functional, organism-based; details: dose 12.5 µg/ml
Candida albicans [3] = assay: Antifungal activity against Candida albicans assessed as fungal growth inhibition at 12.5 ug/ml; assay type: functional, organism-based; details: dose 12.5 µg/ml
Pseudomonas aeruginosa [4] = assay: Antibacterial activity against Pseudomonas aeruginosa assessed as bacterial growth inhibition at 12.5 ug/ml; assay type: functional, organism-based; details: dose 12.5 µg/ml
Salmonella typhi [5] = assay: Antibacterial activity against Salmonella typhi assessed as bacterial growth inhibition at 12.5 ug/ml; assay type: functional, organism-based; details: Salmonella enterica subsp. enterica serovar Typhi; dose 12.5 µg/ml
Proteus vulgaris [6] = assay: Antibacterial activity against Proteus vulgaris assessed as bacterial growth inhibition at 12.5 ug/ml; assay type: functional, organism-based; details: dose 12.5 µg/ml
Corynebacterium = assay: Antibacterial activity against Corynebacterium assessed as bacterial growth inhibition at 12.5 ug/ml; assay type: functional, organism-based; details: dose 12.5 µg/ml
Bacillus subtilis [7] = assay: Antibacterial activity against Bacillus subtilis assessed as bacterial growth inhibition at 12.5 ug/ml; assay type: functional, organism-based; details: dose 12.5 µg/ml
Streptococcus pyogenes [8] = assay: Antibacterial activity against Streptococcus pyogenes assessed as bacterial growth inhibition at 12.5 ug/ml; assay type: functional, organism-based; details: dose 12.5 µg/ml
Staphylococcus aureus [9] = assay: Antibacterial activity against Staphylococcus aureus assessed as bacterial growth inhibition at 12.5 ug/ml; assay type: functional, organism-based; details: dose 12.5 µg/ml
Staphylococcus aureus [10] = assay: Antibacterial activity against Staphylococcus aureus assessed as inhibition of bacterial growth measured after 24 hrs by serial dilution method; assay type: functional
Staphylococcus aureus [11] = assay: Bactericidal activity against Staphylococcus aureus; assay type: functional
Streptococcus pyogenes [12] = assay: Antibacterial activity against Streptococcus pyogenes assessed as bacterial growth inhibition; assay type: functional
Bacillus subtilis [13] = assay: Antibacterial activity against Bacillus subtilis assessed as bacterial growth inhibition; assay type: functional
Corynebacterium ulcerans = assay: Antibacterial activity against Corynebacterium ulcerans assessed as bacterial growth inhibition; assay type: functional
Proteus vulgaris [14] = assay: Antibacterial activity against Proteus vulgaris assessed as bacterial growth inhibition; assay type: functional
Pseudomonas aeruginosa [15] = assay: Antibacterial activity against Pseudomonas aeruginosa assessed as bacterial growth inhibition; assay type: functional
Salmonella typhi [16] = assay: Antibacterial activity against Salmonella typhi assessed as bacterial growth inhibition; assay type: functional, Salmonella enterica subsp. enterica serovar Typhi; details: Salmonella enterica
Shigella dysenteriae [17] = assay: Antibacterial activity against Shigella dysenteriae assessed as bacterial growth inhibition; assay type: functional
Candida albicans [18] = assay: Antifungal activity against Candida albicans assessed as fungal growth inhibition; assay type: functional

CC[C@H](CC[C@@H](C)[C@H]1CC[C@H]2[C@@H]3CC=C4C[C@@H](O)CC[C@]4(C)[C@H]3CC[C@]12C)C(C)C [BETA-SITOSTEROL]
active: growth inhibition (GI) (Shigella dysenteriae [2]) | growth inhibition (GI) (Candida albicans [3]) | growth inhibition (GI) (Pseudomonas aeruginosa [4]) | growth inhibition (GI) (Salmonella typhi [5]) | growth inhibition (GI) (Proteus vulgaris [6]) | growth inhibition (GI) (Corynebacterium) | growth inhibition (GI) (Bacillus subtilis [7]) | growth inhibition (GI) (Streptococcus pyogenes [8]) | growth inhibition (GI) (Staphylococcus aureus [9])
1240 µg/mL: MIC (Staphylococcus aureus [10])
2210 µg/mL: MBC (Staphylococcus aureus [11])
50 µg/mL: MBC (Staphylococcus aureus [1]) | MBC (Streptococcus pyogenes [12]) | MBC (Proteus vulgaris [14]) | MBC (Pseudomonas aeruginosa [15]) | MBC (Shigella dysenteriae [17]) | MFC (Candida albicans [18])
25 µg/mL: MBC (Bacillus subtilis [13]) | MBC (Corynebacterium ulcerans) | MBC (Salmonella typhi [16])
